The results in this text go back to US9089546B2, “Synergistic compositions consisting essentially of combinations of active agents selected from oridonin, wogonin, and isoliquiritigenin for the prevention of neoplasia” (ACTIVEPHYTO TECHNOLOGIES LIMITED, priority 2006, dated 2015).

In general, IC50 refers to the concentration needed to halve the response being measured.

Holding throughout (format): cell-based
Test [1] concerns human ovarian cancer cell lines A2780 (sensitive) and PTX-10 (resistant to taxol). The test can be described thus: Antiproliferative activity, MTT cell viability assay, first set of experiments (72 h), comparison of the two cell lines. The conditions noted are these: A2780 versus taxol-resistant PTX-10. An excerpt:
The present investigation uses two types of cancer cells: A2780 and PTX-10. A2780 is typical of most human ovarian cancers and is not known to be drug-resistant. PTX10 is a taxol-resistant variant of A2780. These two cell types provide a model to compare the effectiveness of the compositions of the present invention against a typical ovarian human cancer where taxol would be a useful treatment and a tumour line where taxol is not useful in treatment.
Cell lines: A2780 and PTX-10 cell lines were from National Institute of Health, Bethesda, Md.
Cell Culture: Both cell lines were cultured in RPMI 1640 supplemented with 10% foetal bovine serum, L-glutamine and antibiotics according to the method of Halicka et al. (Int. J. Oncology 1:437-48, 1997). All media, supplements, and antibiotics were obtained from Life Technologies (Grand Island, N.Y.). The cultures were periodically tested for Mycoplasma infection.
To maintain asynchronous exponential growth, these adherent cells were routinely seeded at 3×10^5 in a T-75 flask and incubated at 37° C. in 5% CO2 for 5-6 days and then repassaged at a 1:10 dilution by trypsinisation (0.25% trypsin/1 mM EDTA). Morphological changes and cell counts of the control and treated cancer cells were determined by light microscopy. Only exponentially and asynchronously growing cells were used in all experiments.
Inhibition of Cell-Growth and Viability AssASYS: The MTT reagent kit was purchased from Boehringer Mannheim (Roche Diagnosis Corp, Indianapolis, Ind.) to count viable cells. […] The protocol for the cell viability assay was provided by the manufacturer and modified in our laboratory as described below: […]
The plates were incubated at 37° C. in the CO2 incubator for 72 hours. […] The plate was allowed to stand overnight in the CO2 incubator and read by ELISA Reader (EL800, Bio-Tek Instruments, Inc.) at a wavelength of 570 nm. The percent cell viability was calculated according to the equation below: 100% (absorption of the control cells−absorption of the treated cells)/absorption of the control cells. […]

Test [2] deals with A2780. The test can be described thus: MTT assay, second set of experiments (Experiment 4), single agents. As to conditions: Homo sapiens. As for the experimental part:
(§1) Inhibition of Cell-Growth and Viability […]: The MTT reagent kit was purchased from Boehringer Mannheim (Roche Diagnosis Corp, Indianapolis, Ind.) to count viable cells. […] The protocol for the cell viability assay was provided by the manufacturer and modified in our laboratory as described below: Ovarian cancer cells were seeded in 96 well microtiter plates at a concentration of 6×10^3 cells per well, in a volume of 100 μL of cell culture medium. After 24 hours, 20 μL aliquots of the compounds at various concentrations were added to the attached cells. Each concentration was plated into 3 wells to obtain mean values. To eliminate any solvent effect, 20 μL of the solvent used in the preparation of the highest concentration of the compounds (a maximum of 0.5% by volume of DMSO) was added to the control cells in each well. The plates were incubated at 37° C. in the CO2 incubator for 72 hours. At the end of day 3, the culture medium was carefully removed without disturbing the cells, and replaced by 100 μL of fresh cell medium. 10 μL of MTT reagent was added to each well and the plates were incubated again in the CO2 incubator at 37° C. for 4 hours. 100 μL of SDS solubilising reagent (from Boehringer Mannheim) was added to each well. The plate was allowed to stand overnight in the CO2 incubator and read by ELISA Reader (EL800, Bio-Tek Instruments, Inc.) at a wavelength of 570 nm. The percent cell viability was calculated according to the equation below: 100% (absorption of the control cells-absorption of the treated cells)/absorption of the control cells. A second set of experiments were carried out showing how the compounds in the formulations of the invention act in synergy with one another. The experimental results differ slightly from those reported above as the experimental work was carried out in a different laboratory and under slightly different conditions. In the second set of experiments the MTT reagent kit was purchased from Sigma-Aldridge in the UK and, due to time constraints; the cells were only incubated overnight prior to being treated with the drugs. The cell lines were also of different origin (the second set being obtained directly from Dr Marianne Poruch of the NIH, Bethesda Md., USA) and may have been subjected to different conditions during storage.
For orientation: Tetrazolium assays rely on reduction of a dye to a coloured formazan, in cell work by metabolically active cells.

In test [3] the test system is PTX10. The test is described as above. The conditions noted are these: Homo sapiens, PTX10 (taxol-resistant). As for the experimental part:
as §1

Regarding `C=C1C(=O)[C@]23[C@H](O)[C@H]1CC[C@H]2[C@@]12CO[C@]3(O)[C@@H](O)[C@@H]1C(C)(C)CC[C@@H]2O` [Formula I, oridonin], in test [1], the “relative sensitivity of the cell lines (dose-response curves, antiproliferative activity)” value (from here on “relative sensitivity of the cell lines”) was “A2780 cell line is more sensitive”. Besides, the IC50 in test [2] worked out at 810 ± 130 nM; in test [3], 4720 ± 3700 nM.

For the compound `COc1c(O)cc(O)c2c(=O)cc(-c3ccccc3)oc12` [Formula III, wogonin], the “relative sensitivity of the cell lines” value in test [1] is listed as “PTX-10 cell line is slightly more sensitive”. Besides, the results for the IC50 in test [2] and in test [3] were 670 ± 230 nM and 590 ± 380 nM, respectively.

With `O=C(/C=C/c1ccc(O)cc1)c1ccc(O)cc1O` [Formula V, isoliquiritigenin], in test [1], the “relative sensitivity of the cell lines” value is “PTX-10 cell line is more sensitive”. Further, the values for the IC50 in test [2] and in test [3] were 2400 ± 420 nM and 300 ± 130 nM, respectively.
